Columns and labels:
philtrum skin = assay: Cooling sensation after ointment applied to philtrum skin; assay type: in vivo, human
Source text: A reliable place for topical application is the skin above the upper lip (above the vermilion border of the lips), on the philtrum, lateral to the philtrum until the nasolabial folds, and on the lower nostrils (subnasale). This part of the face is known to be densely innervated with cold receptors, second only to the surfaces of the eyeball and anogenitalia.
The intensity of the subjective skin sensation is rated as 0, 1, 2 or 3 with: 0 as no change; 1 as slight coolness, cold, or tingling; 2 as clear-cut signal of coolness, cold, or tingling; and 3 as robust cooling or cold. The intervals for recording sensations are 5 to 10 minutes, until two successive zeroes are obtained. The results (shown in FIG. 1) are averaged values of 4 to 6 separate trials in the same individual. The data are plotted using SigmaPlot® (Systat Software, Point Richmond Calif.) and a smoothing function with a negative exponential was used for analysis and statistical fit of the results. Confirmatory trials of cooling action of the long-acting NACE compounds were obtained in 2 to 4 individuals but not quantified for some because of the large number of chemicals that were evaluated
(§1) The onset of drug action is taken as the time to reach 2 units of coolness intensity, and offset of drug action is the time when coolness intensity drops below 2, after previously surpassing 2 units. The duration of cooling action is defined as the offset time minus the onset time. […] The quality of the sensation is noted, for example, as pure refreshing coolness, or if the sensation is accompanied by irritation (stinging or burning). The quality of the sensation is not rated for intensity.
For bioassay on the skin, approximately 30 mg was stirred and dissolved in 3 g of warm liquid Aquaphor® ointment to a yield 5 to 10 mg/ml (0.5% to 1.0 wt/vol) ointment. After cooling, 40 to 70 mg of the solid ointment was placed on the tip of a plastic stick and applied to the skin above the upper lip, on the philtrum, and lateral to the philtrum, up to the nasolabial folds, of test subjects and the onset and duration of cooling sensations noted.
The intensity of the subjective skin sensation was rated as 0, 1, 2 or 3 with: 0 as no change; 1 as slight coolness, cold, or tingling; 2 as clear signal of coolness, cold, or tingling; and 3 as robust cooling or cold. The intervals for recording sensations were 5 to 10 minutes, until two successive zeroes were obtained. The results (shown in FIG. 1) are averaged values of 4 to 6 separate trials in the same individual. The data are plotted using SigmaPlot® (Systat Software, Point Richmond, Calif., USA) and a smoothing function with a negative exponential was used for analysis and statistical fit of the results.
as §1, with “was” for “is”, “was also noted: such” for “is noted, for example,”
For the results in FIG. 1, the test compounds were singly applied to the skin above the upper lips at a 40 to 70 mg dose of a 1% wt/vol (10 mg/ml) ointment. Subsequently, for the results shown in Table 3, the test dose on the philtrum was reduced to a 0.5% wt/vol (5 mg/ml) ointment. The reason for choosing a lower dose was to increase the number of trials per individual and to have a reduced chance of substances accumulating in the skin.

[1] = Log P of tested compounds; assay type: physicochemical
periorbital pain = assay: Study 6: eye wipes in persistent periorbital pain; assay type: in vivo, human; details: eye wipes 1.0 mg/ml, one patient, three occasions
Protocol: (§2) For testing of cooling compounds delivered to the eyelids with a towelette, the following procedures were used in the experiments of Table 3 and in Study 5 and 6. Three ml of liquid suspension or solution in distilled water was added to a 0.4 g cotton rectangle (50 mm×60 mm) (CS-being, Daisan Cotton, Japan) and individually sealed with a vaccuum apparatus (Foodsaver®, Jarden Corp.). Samples were stored in the freezer or refrigerator and thawed to room temperature before use. Wiping with the cotton pad delivers 40 to 45 μl of liquid composition to the eyelids ([…] to 22 μl per eye). So, if the concentration of the test substance was 1 mg/ml, the dose delivered to both eyes is a total of ˜40 to […], or ˜20 μg per eye. This method allows a reliable delivery of test substances because the dissolved or suspended particles in solution are evenly dispersed on the cotton pad in an excess volume of liquid. The presence or absence of cooling sensations was noted as being present or absent at 5 to 10 min intervals until no coolness was noticeable in two successive test intervals. Only the duration of cooling on the ocular surface was recorded, without an attempt to quantify the intensity of the sensation.
A person suffered from “dry eyes” or keratoconjunctivitis sicca which was managed by artificial tears and eye drops containing lubricants. […]

eyelids/ocular surface = assay: Cooling after wiping closed eyelids with a towelette; assay type: in vivo, human
Protocol: A second method of testing was to take a towelette saturated with a test solution of the cooling agent and to wipe the towelette over the dosed eyelids. The presence or absence of cooling (or irritanty, if applicable) sensations was then recorded at 10 minute intervals until the cessation of coolness in two successive intervals.
as §2

allergic conjunctivitis = assay: Study 5: eye wipes in allergic conjunctivitis; assay type: in vivo, human
Protocol: as §2
A laboratory scientist suffered from seasonal allergic conjunctivitis. This condition was severely aggravated when […] started doing experiments with laboratory animals (rats and mice) and […] became sensitized to the associated allergens. The conjunctivitis was not relieved by oral or topical eye drop antihistamines and the subject was reluctant to consider the use of anti-inflammatory steroid ointments. Upon examination, their eyes were blood-shot and watery and they kept rubbing their eyelids with their fingers even though they knew this action may further aggravate the itch and discomfort. They volunteered to try eye wipes containing 1.0 mg/ml of (R)-2-[((1 R,2S,5R)-2-isopropyl-5-methyl-cyclohexanecarbonyl)-amino]-acetic isopropyl ester (Gly-OiPr, No. 2, in table 1). The relief of itch and discomfort was obtained within 5 minutes and lasted for at least four hours.

periorbital skin = assay: Ointment applied to periorbital skin: coolness, eye irritancy, alerting (Study 3); assay type: in vivo, human; details: summary comparison
Source text: The ointment was also applied to the periorbital skin (upper and lower eyelids and on skin adjacent to the lateral canthus) for tests of irritancy near the eyes, and the subject is asked if irritation is present or absent. The intensity of the eye sensation is not rated.
For tests of irritancy near the eyes in Study 3 and 4, the ointment was applied to the periorbital skin (upper and lower eyelids and on skin adjacent to the lateral canthus), and the subject asked if irritation is present or absent. The intensity of the eye sensation is not rated, but just noted as being present or absent
A 1% preparation of 2-isopropyl-5-methyl-cyclohexanecarbonyl D-alanine methyl ester in Aquaphor® ointment was applied bilaterally to the periorbital area of four individuals. […] This experiment was then repeated three days later in the evening with the same individuals whose occupations required daylong activities before a computer screen.

[2] = test system: dorsal surface of the tongue; assay: Tongue cooling threshold, impregnated filter paper (Watson et al.); assay type: in vivo, human; details: summary comparison
Protocol: Watson et al. (U.S. Pat. No. 4,178,459) tested the properties of N-substituted p-menthane carboxamides. However, the branched chain alkylesters such as the isopropyl analogs described here in the Gly and D-Ala configuration of Formula 1 were never synthesized by Watson et al. Bioactivity of the Watson et at compounds were tested by putting filter paper (1×1 cm), impregnated with a known amount of compound, onto the dorsal surface of the tongue of the volunteer test subject. After 30 seconds, the subject was required to report presence or absence of a cooling effect. […] The average threshold of (−)-menthol for 6 subjects was 0.25 μg, but there was a 100-fold variation in individual sensitivity. The potencies of coolness signals detected from the dorsal surface of the tongue are not correlated to skin sensations of coolness may be confounded by gustatory, olfactory, and other variables, as well as by dilution from saliva.

[3] = test system: dorsal surface of the tongue; details: threshold amount producing cooling on tongue of human volunteers; values from Watson US 04178459; cited from earlier work
[4] = eye wipes 1.0 mg/ml, one subject

logP [1]	SMILES	Duration of cooling, Philtrum Skin (philtrum skin; 5 mg/ml in Aquaphor ointment on philtrum skin) [min]	relief of periorbital pain (periorbital pain)	Duration of cooling, Eyelids/Ocular Surface (eyelids/ocular surface; eye wipes, 1 mg/ml in 5%-95% v/v ethanol-distilled water) [min]	duration of relief of itch and discomfort (allergic conjunctivitis; [4])	time to relief of itch and discomfort (allergic conjunctivitis; [4]) [min]	over-all itchiness and redness (allergic conjunctivitis; wipes used as needed for three days)	duration of cooling (FIG. 1) (philtrum skin; 40 to 70 mg of 1% wt/vol (10 mg/ml) ointment on skin above the upper lips) [h]	Cooling on skin of face (philtrum skin; summary comparison)	“perfect” cooling experience (philtrum skin; summary comparison)	Eye Irritancy (periorbital skin)	Acts for >1 hour at 1 mg/ml (eyelids/ocular surface; 1 mg/ml)	Cooling on tongue [2]	Threshold tongue [3] [µg]
3.3	CC(C)OC(=O)CNC(=O)[C@@H]1C[C@H](C)CC[C@H]1C(C)C [Gly iPr Ester, (R)-2-[((1R,2S,5R)-2-isopropyl-5-methyl-cyclohexanecarbonyl)-amino]-acetic acid isopropyl ester]	27	immediate relief	300	at least four	≤ 5	over-all itchiness and redness were reduced significantly	–	–	–	–	–	–	–
–	CC1CCC(C(C)C)C(O)C1 (single isomer, unassigned; (-)) [(−)-menthol, reference compound]	–	–	–	–	–	–	0.3	yes	no	yes	no	yes	0.25
